Where two headings read alike, the source gives them in different places. Square brackets hold non-standard residues; d marks the D form. Peptide text beside a SMILES is read from it. * marks the point of attachment. Dolaproine = CO[C@@H]([C@@H]1CCCN1)[C@@H](C)C(=O)O; Dil = CC[C@H](C)[C@H](NC)[C@@H](CC(=O)O)OC; X1 = C[C@@H](N*)[C@@H](O)c1ccccc1; NMeV = CN[C@H](C(=O)O)C(C)C
Assays:
[1] = tested on: MES SA (human uterine sarcoma); conditions: for IC50: read-out: IC50 MES SA
[2] = tested on: HEK 293T (human embryonic kidney cancer cell line); conditions: for IC50: read-out: IC50 HEK 293T
[3] = tested on: MES SA DX (human uterine sarcoma cell line with marked multidrug resistance); conditions: for IC50: read-out: IC50 MES SA DX
[4] = tested on: HEK 293T (human embryonic kidney cancer cell line); assay: cells; conditions: 72 h, read-out: IC50 HEK 293T
[5] = tested on: MES SA DX (human uterine sarcoma cell line with marked multidrug resistance); assay: cells; conditions: 72 h, read-out: IC50 MES SA DX
[6] = tested on: MES SA (human uterine sarcoma); assay: cells; conditions: 72 h, read-out: IC50 MES SA

Compound: COc1c2c(c(O)c3c4c(c(C)cc13)[C@@H]1O[C@@]3(C(OC)OC)O[C@@H]1[C@@](O[C@H]1C[C@@H](O)[C@@](O)(C(C)=O)[C@H](C)O1)(O4)[C@@]31CO1)C(=O)[C@@H](O)C[C@@H]2O[C@H]1C[C@@](C)(O)[C@H](O)[C@H](C)O1 [Trioxacarcin D, reference compound]
- IC50 [1]: 11.1 nM
- IC50 [2]: 8.02 nM
- IC50 [3]: > 1000 nM

Compound: COc1c2c(c(O)c3c4c(c(C)cc13)C1OC3(C5OCCCO5)OC1[C@@](OCC=CCO[C@@]15Oc6c(c(C)cc7c(OC)c8c(c(O)c67)C(=O)CCC8)C6OC(C7OCCCO7)(OC61)[C@]51CO1)(O4)[C@@]31CO1)C(=O)CCC2 (stereo partly drawn) [Trx25, (1S,2S,3aS,4R,13aR,1′″S,2′″S,3a′″S,4′R,13a′″R)-13a,13a′-[(2E)-but-2-ene-1,4-diylbis(oxy)]bis[2-(1,3-dioxan-2-yl)-12-hydroxy-7-methoxy-5-methyl-3a,4,8,9,10,13a-hexahydro-11H-spiro[2,4-epoxyfuro[3,2-b]naphtho[2,3-h]chromene-1,2′-oxiran]-11-one]]
- IC50 [1]: 235 nM
- IC50 [2]: 105 nM
- IC50 [3]: 429 nM

Compound: COc1c2c(c(O)c3c4c(c(C)cc13)C1OC3(C5OCCCO5)OC1[C@@](OCC=CCO[C@@]15Oc6c(c(C)cc7c(OC)c8c(c(O)c67)C(=O)CCC8)C6OC(C7OCCCO7)(OC61)[C@]51CO1)(O4)[C@@]31CO1)C(=O)CCC2 (stereo partly drawn) [Trx24, (1S,2S,3aS,4R,13aR,1′″S,2′″S,3a′″S,4′″R,13a′″R)-13a,13a′-[(2Z)-but-2-ene-1,4-diylbis(oxy)]bis[2-(1,3-dioxan-2-yl)-12-hydroxy-7-methoxy-5-methyl-3a,4,8,9,10,13a-hexahydro-11H-spiro[2,4-epoxyfuro[3,2-b]naphtho[2,3-h]chromene-1,2′-oxiran]-11-one]]
- IC50 [4]: 115 nM
- IC50 [1]: > 1000 nM
- IC50 [3]: > 1000 nM

Compound: COc1c2c(c(OC(C)=O)c3c4c(c(C)cc13)[C@H]1O[C@]3(C5OCCCO5)O[C@@H]1[C@@](OC)(O4)[C@@]31CO1)C(=O)CCC2 [Trx27, (1S,2S,3aS,4R,13aR)-2-(1,3-Dioxan-2-yl)-7,13a-dimethoxy-5-methyl-11-oxo-3a,8,9,10,11,13a-hexahydro-4H-spiro[2,4-epoxyfuro[3,2-b]naphtho[2,3-h]chromene-1,2′-oxiran]-12-yl acetate]
- IC50 [4]: 1.24 nM
- IC50 [5]: 1.43 nM
- cytotoxic potency against MES SA, in words [1]: no significant loss of potency
- IC50 [6]: 2.15 nM
- cytotoxic potency against HEK 293T, in words [2]: no significant loss of potency
- cytotoxic potency against MES SA DX, in words [3]: no significant loss of potency

Compound: COc1c2c(c(O)c3c4c(c(C)cc13)C1OC3(C5OCCCO5)OC1[C@@](OC)(O4)[C@@]31CO1)C(=O)CCC2 (stereo partly drawn) [Trx13]
- IC50 [4]: 0.5 nM
- IC50 [5]: 0.38 nM
- IC50 [1]: 0.56 nM
- IC50 [6]: 0.53 nM
- IC50 [2]: 0.4 nM
- IC50 [3]: 0.42 nM

Compound: (4R,5S,6R,10S)-8-{[(1S,2R)-2-(1,3-Dioxan-2-yl)-12-hydroxy-7-methoxy-5-methyl-11-oxo-3a,4,8,9,10,11-hexahydro-13aH-spiro[2,4-epoxyfuro[3,2-b]naphtho[2,3-h]chromene-1,2′-oxiran]-13a-yl]oxy}-4,6-dimethyl-2-oxo-1,3,7-trioxaspiro[4.5]dec-10-ylacetate [Trx22]
- IC50 [1]: 5.74 nM
- IC50 [2]: 4.2 nM
- IC50 [3]: 56.9 nM

Compound: COc1c2c(c(OC(C)=O)c3c4c(c(C)cc13)[C@H]1O[C@]3(C5OCCCO5)O[C@@H]1[C@@](OC(C)=O)(O4)[C@@]31CO1)C(=O)CCC2 [Trx26, (1S,2S,3aS,4R,13aS)-2-(1,3-Dioxan-2-yl)-7-methoxy-5-methyl-11-oxo-3a,4,8,9,10,11-hexahydro-13aH-spiro[2,4-epoxyfuro[3,2-b]naphtho[2,3-h]chromene-1,2′-oxirane]-12,13a-diyl diacetate]
- IC50 [4]: 11.6 nM
- IC50 [5]: 60.3 nM
- cytotoxic potency against MES SA, in words [1]: no significant loss of potency
- IC50 [6]: 67.4 nM
- cytotoxic potency against HEK 293T, in words [2]: no significant loss of potency
- cytotoxic potency against MES SA DX, in words [3]: no significant loss of potency

Compound: COc1c2c(c(O)c3c4c(c(C)cc13)[C@H]1O[C@]3(C5OCCO5)O[C@@H]1[C@](OC)(O4)[C@@]31CO1)C(=O)CCC2 [Trx9, (1S,2S,3aS,4R,13aS)-2-(1,3-Dioxolan-2-yl)-12-hydroxy-7,13a-dimethoxy-5-methyl-3a,4,8,9,10,13a-hexahydro-11H-spiro[2,4-epoxyfuro[3,2-b]naphtho[2,3-h]chromene-1,2′-oxiran]-11-one]
- IC50 [4]: 2.04 nM
- IC50 [5]: 2.63 nM
- IC50 [6]: 4.67 nM

Compound: COc1c2c(c(O)c3c4c(c(C)cc13)[C@@H]1O[C@@]3(C(OC)OC)O[C@@H]1[C@@](O[C@H]1C[C@@H](O)[C@@](O)(C(C)=O)[C@H](C)O1)(O4)[C@@]31CO1)C(=O)[C@@H](O)C[C@@H]2O[C@H]1C[C@@](C)(O)[C@H](OC(C)=O)[C@H](C)O1 [Trioxacarcin A]
- IC50 [1]: 0.74 nM
- IC50 [2]: 0.702 nM
- IC50 [3]: 204 nM

Compound: CC[C@H](C)[C@@H]([C@@H](CC(=O)N1CCC[C@H]1[C@H](OC)[C@@H](C)C(=O)N[C@H](C)[C@@H](O)c1ccccc1)OC)N(C)C(=O)[C@@H](NC(=O)[C@@H](NC)C(C)C)C(C)C [MMAE, monomethyl auristatin E, reference compound] (H-[NMeV]V[Dil][Dolaproine]-X1)
- IC50 [1]: 0.06 nM
- IC50 [2]: 0.08 nM
- IC50 [3]: > 70 nM

— patent publication US20210230178A1, “TRIOXACARCIN ANALOGS AND DIMERS AS POTENT ANTICANCER AGENTS” (William Marsh Rice University, priority 2017, published 2021)
